From patent USRE40793E1, “Bicyclic benzamides of 3-or 4-substituted 4-(aminomethyl)-piperidine derivatives” (Janssen Pharmaceutica, N.V., priority 1997, dated 2009)

System: conscious dogs
Assay: Gastric emptying of an acaloric liquid test meal delayed by administration of lidamidine, in conscious dogs
Format: in vivo, beagle dogs
Conditions: conscious dog
Source text: C. Pharmacological Examples C.1. Gastric Emptying of an Acaloric Liquid Test Meal Delayed by Administration of Lidamidine, in Conscious Dogs
Female beagle dogs, weighing 7-14 kg, were trained to stand quietly in Pavlov frames. They were implanted with a gastric cannula under general anesthesia and aseptic precautions. After a medium laparatomy, an incision was made through the gastric wall in the longitudinal direction between the greater and the lesser curve, 2 cm above the nerves of Latarjet. The cannula was secured to the gastric wall by means of a double purse string suture and brought out via a stab wound at the left quadrant of the hypochondrium. Dogs were allowed a recovery period of at least two weeks. Experiments were started after a fasting period of 24 hours, during which water was available ad libitum. At the beginning of the experiment, the cannula was opened in order to remove any gastric juice or food remnants.
The stomach was cleansed with 40 to 50 ml lukewarm water. The test compound was administered I.V. (in a volume ≦3 ml via the vena cephalica), S.C. (in a volume ≦3 ml) or P.O. (in a volume of 1 ml/kg body weight, applied intragastrically via the cannula with a device that filled the lumen of the cannula: after injection of the test compound; 5 ml NaCl 0.9% was injected in order to correct for the dead space in the injection system). Immediately after administration of the test compound or its solvent, lidamidine (0.63 mg/kg was administered subcutaneously. 30 min later, the cannula was opened to determine the amount of fluid present in the stomach, promptly followed by reintroduction of the fluid. Then the test meal was administered via the cannula. This test meal consisted of 250 ml distilled water containing glucose (5 g/l) as a marker. The cannula remained closed for 30 min, whereafter the gastric contents were drained from the stomach to measure total volume (t=30 min). For later analysis 1 ml of the gastric contents was taken, promptly followed by reintroduction of the rest volume into the stomach. This sequence was repeated 4 times with 30 min intervals (t=60, 90, 120, 150 min).
In the 1 ml samples of the gastric contents, the glucose concentrations were measured on a Hitachi 717 automatic analyzer by the hexokinase method (Schmidt, 1961).
Curves were fitted to the measurement points (glucose versus time) using weighed non-linear regression analysis. Gastric emptying was quantified as the time needed to empty 70% of the meal (t 70%). The control emptying time was calculated as the mean t 70% of the last 5 solvent experiments of the same dog. Acceleration of delayed gastric emptying (Δt) was calculated as the time difference between t 70% compound and t 70% solvent. To correct for variations in emptying rate between dogs, Δt was expressed as % of t 70% solvent (Schuurkes et al. 1992)).

[1] = compounds, dose 0.0025 mg/kg, Δt = t 70% compound minus t 70% solvent, relative to t 70% solvent
[2] = compounds, dose 0.01 mg/kg, Δt = t 70% compound minus t 70% solvent, relative to t 70% solvent

Nc1c(Cl)cc(C(=O)NC[C@@H]2CCN(CCOCCO)C[C@H]2O)c2c1CCO2 (racemic) [Compound 17]
ΔT/T^b (acceleration of gastric emptying of a liquid meal delayed by lidamidine) [1]: −0.30 | ΔT/T^a (acceleration of gastric emptying of a liquid meal delayed by lidamidine) [2]: 0.06 | ΔT/T^b (acceleration of gastric emptying of a liquid meal delayed by lidamidine) (intermediates, dose 0.0025 mg/kg): −0.18 | ΔT/T^a (acceleration of gastric emptying of a liquid meal delayed by lidamidine) (intermediates, dose 0.01 mg/kg): −0.28

N#CCCCN1CC[C@@H](CNC(=O)c2cc(Cl)c(N)c3c2OCC3)[C@H](O)C1 (racemic) [Compound 18]
ΔT/T^b (acceleration of gastric emptying of a liquid meal delayed by lidamidine) [1]: −0.47 | ΔT/T^a (acceleration of gastric emptying of a liquid meal delayed by lidamidine) [2]: −0.57

CCCCN1CC[C@@H](CNC(=O)c2cc(Cl)c(N)c3c2OCC3)[C@H](O)C1 (relative stereo) [Compound 2, trans-4-amino-N-[(1-butyl-3-hydroxy-4-piperidinyl)methyl]-5-chloro-2,3-dihydro-7-benzofurancarboxamide]
change in vivo at 0.0025 mg/kg (Canis lupus familiaris, compounds, dose 0.0025 mg/kg, Δt = t 70% compound minus t 70% solvent, relative to t 70% solvent, read-out: ΔT/T^b (acceleration of gastric emptying of a liquid meal delayed by lidamidine)): -61% | change in vivo at 0.01 mg/kg (Canis lupus familiaris, compounds, dose 0.01 mg/kg, Δt = t 70% compound minus t 70% solvent, relative to t 70% solvent, read-out: ΔT/T^a (acceleration of gastric emptying of a liquid meal delayed by lidamidine)): -34%

COCCCN1CC[C@@H](CNC(=O)c2cc(Cl)c(N)c3c2OC(C)(C)C3)[C@H](O)C1 (relative stereo) [Compound 40, trans-(+)-4-amino-5-chloro-2,3-dihydro-N-[[3-hydroxy-1-(3-methoxypropyl)-4-piperidinyl]methyl]-2,2-dimethyl-7-benzofurancarboxamide]
ΔT/T^b (acceleration of gastric emptying of a liquid meal delayed by lidamidine) [1]: −0.17 | ΔT/T^a (acceleration of gastric emptying of a liquid meal delayed by lidamidine) [2]: −0.22

CC(C)OCCCN1CC[C@@H](CNC(=O)c2cc(Cl)c(N)c3c2OCC3)[C@H](O)C1 (racemic) [Compound 19]
ΔT/T^b (acceleration of gastric emptying of a liquid meal delayed by lidamidine) [1]: −0.30 | ΔT/T^a (acceleration of gastric emptying of a liquid meal delayed by lidamidine) [2]: −0.78

N#CCCCN1CC[C@@H](CNC(=O)c2cc(Cl)c(N)c3c2OCCC3)[C@H](O)C1 (relative stereo) [Compound 77]
ΔT/T^a (acceleration of gastric emptying of a liquid meal delayed by lidamidine) [2]: −0.18
